Measured values as given in PubChem BioAssay AID1963451 (Molecular Pharmacology Branch, DTP, NCI, 2024).

Tested on: 521955-158-R6-J3-PDC complex spheroid growth, % test/control
Test: Anticancer human tumor 521955-158-R6-J3-PDC patient-derived pancreatic carcinoma cell line growth inhibition [Asc]
Conditions: for IC50: curve of first compound; for viability, T/C: stronger effect = lower value
In short: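 Concentration series start at each agent's clinical Cmax, or at 10 microM when none is established, and drop in half-log steps; agents are applied alone or together to complex spheroids built with HUVEC and hMSC.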

[1] = second compound 0.0316 µM, first compound 0.00316 µM
[2] = second compound 0.0316 µM, first compound 0.01 µM
[3] = second compound 0.0316 µM, first compound 0.0316 µM
[4] = second compound 0.0316 µM, first compound 0.1 µM
[5] = second compound 0.0316 µM, first compound 0.316 µM
[6] = second compound 0.0316 µM, first compound 1 µM
[7] = second compound 0.1 µM, first compound 0.00316 µM
[8] = second compound 0.1 µM, first compound 0.01 µM
[9] = second compound 0.1 µM, first compound 0.0316 µM
[10] = second compound 0.1 µM, first compound 0.1 µM
[11] = second compound 0.1 µM, first compound 0.316 µM
[12] = second compound 0.1 µM, first compound 1 µM
[13] = second compound 0.316 µM, first compound 0.00316 µM
[14] = second compound 0.316 µM, first compound 0.01 µM
[15] = second compound 0.316 µM, first compound 0.0316 µM
[16] = second compound 0.316 µM, first compound 0.1 µM
[17] = second compound 0.316 µM, first compound 0.316 µM
[18] = second compound 0.316 µM, first compound 1 µM
[19] = second compound 1 µM, first compound 0.00316 µM
[20] = second compound 1 µM, first compound 0.01 µM
[21] = second compound 1 µM, first compound 0.0316 µM
[22] = second compound 1 µM, first compound 0.1 µM
[23] = second compound 1 µM, first compound 0.316 µM
[24] = second compound 1 µM, first compound 1 µM
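Note: spheroids exposed to compounds for 7 days.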
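Throughout, for viability, T/C: 100% = DMSO vehicle control wells.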

Question: With `O=C(c1ccc(F)c(F)c1Nc1ccc(I)cc1F)N1CC(O)([C@@H]2CCCCN2)C1` + CNC(C)C(=O)NC1CN(S(=O)(=O)c2cccc(S(=O)(=O)N3CCC4CCC(C(=O)NC(c5ccccc5)c5ccccc5)N4C(=O)C(NC(=O)C(C)NC)C3)c2)CCC2CCC(C(=O)NC(c3ccccc3)c3ccccc3)N2C1=O as the compound, how does the IC50 (second compound 0.00316 µM) read?
Answer: 569 nM

Question: And the IC50 (second compound 0.01 µM)?
Answer: 261 nM

Question: And the IC50 (second compound 0.0316 µM)?
Answer: 291 nM

Question: What about the IC50 (second compound 0.1 µM) of the same compound?
Answer: 503 nM

Question: What about the IC50 (second compound 0.316 µM) of the same compound?
Answer: 207 nM

Question: And the IC50 (second compound 1 µM)?
Answer: 139 nM

Question: And the viability, T/C (second compound 0.00316 µM, first compound 0.00316 µM)?
Answer: 150%

Question: And the viability, T/C (second compound 0.00316 µM, first compound 0.01 µM)?
Answer: 127%

Question: And the viability, T/C (second compound 0.00316 µM, first compound 0.0316 µM)?
Answer: 120%

Question: And the viability, T/C (second compound 0.00316 µM, first compound 0.1 µM)?
Answer: 105%

Question: And the viability, T/C (second compound 0.00316 µM, first compound 0.316 µM)?
Answer: 60%

Question: And the viability, T/C (second compound 0.00316 µM, first compound 1 µM)?
Answer: 36%

Question: What about the viability, T/C (second compound 0.01 µM, first compound 0.00316 µM) of the same compound?
Answer: 87.4%

Question: What about the viability, T/C (second compound 0.01 µM, first compound 0.01 µM) of the same compound?
Answer: 84.9%

Question: What about the viability, T/C (second compound 0.01 µM, first compound 0.0316 µM) of the same compound?
Answer: 94.8%

Question: What about the viability, T/C (second compound 0.01 µM, first compound 0.1 µM) of the same compound?
Answer: 74.9%

Question: What about the viability, T/C (second compound 0.01 µM, first compound 0.316 µM) of the same compound?
Answer: 45.5%

Question: And the viability, T/C (second compound 0.01 µM, first compound 1 µM)?
Answer: 30.7%

Question: What about the viability, T/C [1] of the same compound?
Answer: 88.7%

Question: And the viability, T/C [2]?
Answer: 88.6%

Question: What about the viability, T/C [3] of the same compound?
Answer: 90.1%

Question: And the viability, T/C [4]?
Answer: 72%

Question: What about the viability, T/C [5] of the same compound?
Answer: 49.2%

Question: And the viability, T/C [6]?
Answer: 31%

Question: And the viability, T/C [7]?
Answer: 117%

Question: And the viability, T/C [8]?
Answer: 94.3%

Question: What about the viability, T/C [9] of the same compound?
Answer: 102%

Question: What about the viability, T/C [10] of the same compound?
Answer: 83.8%

Question: And the viability, T/C [11]?
Answer: 65.7%

Question: And the viability, T/C [12]?
Answer: 28.7%

Question: What about the viability, T/C [13] of the same compound?
Answer: 72.6%

Question: What about the viability, T/C [14] of the same compound?
Answer: 76.1%

Question: What about the viability, T/C [15] of the same compound?
Answer: 72.5%

Question: What about the viability, T/C [16] of the same compound?
Answer: 61%

Question: And the viability, T/C [17]?
Answer: 43.6%

Question: What about the viability, T/C [18] of the same compound?
Answer: 29.9%

Question: What about the viability, T/C [19] of the same compound?
Answer: 78.9%

Question: What about the viability, T/C [20] of the same compound?
Answer: 70.9%

Question: What about the viability, T/C [21] of the same compound?
Answer: 95.4%

Question: And the viability, T/C [22]?
Answer: 56.5%

Question: What about the viability, T/C [23] of the same compound?
Answer: 39.5%

Question: What about the viability, T/C [24] of the same compound?
Answer: 27.4%

Question: How did the IC50 (second compound 0.0316 µM) turn out when `CNC(C)C(=O)NC1CN(S(=O)(=O)c2cccc(S(=O)(=O)N3CCC4CCC(C(=O)NC(c5ccccc5)c5ccccc5)N4C(=O)C(NC(=O)C(C)NC)C3)c2)CCC2CCC(C(=O)NC(c3ccccc3)c3ccccc3)N2C1=O` (centres undefined) + Cc1c(S(C)(=O)=O)c(-c2cc(F)cc(N3CCN(c4ccc(NS(=O)(=O)c5ccc(NC(CCN6CCC(C(=O)OCCCP(=O)(O)O)CC6)CSc6ccccc6)c(S(=O)(=O)C(F)(F)F)c5)cc4)CC3)c2)c(-c2ccc(Cl)cc2)n1C(C)C was run?
Answer: > 1000 nM

Question: And the IC50 (second compound 0.1 µM)?
Answer: > 1000 nM

Question: What about the IC50 (second compound 0.316 µM) of the same compound?
Answer: 5.02 nM

Question: What about the IC50 (second compound 1 µM) of the same compound?
Answer: < 3.16 nM

Question: And the IC50 (second compound 3.16 µM)?
Answer: < 3.16 nM

Question: What about the IC50 (second compound 10 µM) of the same compound?
Answer: < 3.16 nM

Question: What about the viability, T/C [1] of the same compound?
Answer: 101%

Question: What about the viability, T/C [2] of the same compound?
Answer: 90.1%

Question: What about the viability, T/C [3] of the same compound?
Answer: 80.1%

Question: What about the viability, T/C [4] of the same compound?
Answer: 72.5%

Question: What about the viability, T/C [5] of the same compound?
Answer: 67.3%

Question: What about the viability, T/C [6] of the same compound?
Answer: 60.4%

Question: And the viability, T/C [7]?
Answer: 93.4%

Question: What about the viability, T/C [8] of the same compound?
Answer: 64.7%

Question: And the viability, T/C [9]?
Answer: 57.1%

Question: And the viability, T/C [10]?
Answer: 56.4%

Question: And the viability, T/C [11]?
Answer: 51.4%

Question: And the viability, T/C [12]?
Answer: 55.4%

Question: And the viability, T/C [13]?
Answer: 57.3%

Question: What about the viability, T/C [14] of the same compound?
Answer: 38.4%

Question: What about the viability, T/C [15] of the same compound?
Answer: 42.8%

Question: What about the viability, T/C [16] of the same compound?
Answer: 39.4%

Question: What about the viability, T/C [17] of the same compound?
Answer: 35.7%

Question: And the viability, T/C [18]?
Answer: 35.5%

Question: What about the viability, T/C [19] of the same compound?
Answer: 31.6%

Question: And the viability, T/C [20]?
Answer: 23.8%

Question: What about the viability, T/C [21] of the same compound?
Answer: 29.6%

Question: And the viability, T/C [22]?
Answer: 19.9%

Question: And the viability, T/C [23]?
Answer: 25.4%

Question: And the viability, T/C [24]?
Answer: 21.1%

Question: What about the viability, T/C (second compound 3.16 µM, first compound 0.00316 µM) of the same compound?
Answer: 14.6%

Question: And the viability, T/C (second compound 3.16 µM, first compound 0.01 µM)?
Answer: 13%

Question: And the viability, T/C (second compound 3.16 µM, first compound 0.0316 µM)?
Answer: 16.9%

Question: And the viability, T/C (second compound 3.16 µM, first compound 0.1 µM)?
Answer: 14.1%

Question: What about the viability, T/C (second compound 3.16 µM, first compound 0.316 µM) of the same compound?
Answer: 12.3%

Question: What about the viability, T/C (second compound 3.16 µM, first compound 1 µM) of the same compound?
Answer: 13.3%

Question: And the viability, T/C (second compound 10 µM, first compound 0.00316 µM)?
Answer: 10.6%

Question: What about the viability, T/C (second compound 10 µM, first compound 0.01 µM) of the same compound?
Answer: 12%

Question: And the viability, T/C (second compound 10 µM, first compound 0.0316 µM)?
Answer: 8.73%

Question: And the viability, T/C (second compound 10 µM, first compound 0.1 µM)?
Answer: 9.27%

Question: What about the viability, T/C (second compound 10 µM, first compound 0.316 µM) of the same compound?
Answer: 10.4%

Question: What about the viability, T/C (second compound 10 µM, first compound 1 µM) of the same compound?
Answer: 6.75%
